In patent US20240082392A1, “USE OF SYNTHETIC PEPTIDE FOR THE INDUCTION OF ANTITUMOR AND ANTIVIRAL IMMUNITY” (CENTRO DE INGENIERÍA GENÉTICA Y BIOTECNOLOGÍA, priority 2020, published 2024):
Where a SMILES comes first, the peptide text is derived from it. Bridges are numbered along the chain shown (N, C = ends).

Columns and labels:
L1210 cells [1] = experiment: Vaccination with treated tumor cells, then challenge with live cells; type: in vivo, DBA/2 mice; details: vaccinated with cells treated with 5 μM CX4945 for 24 hours
Experimental: In order to explore whether the cell death induced by the peptide identified as SEQ ID NO: 1 had any immunomodulatory effect, a vaccination schedule was performed in mice with tumor cells previously treated with the peptide identified as SEQ ID NO: 1. For this purpose, 1×10^6 L1210 cells treated in vitro with 40 μM of the peptide identified as SEQ ID NO: 1, or time-matched untreated cells during 3 hours were subcutaneously injected in 0.1 mL in the inguinal area into right flank of 6-8 weeks female DBA/2 mice. After seven days, 1×10^6 live L1210 cells were inoculated on opposite flank, and tumor growth and volume were evaluated until day 45. Tumors were measured with Vernier calipers, three times a week, tumor volume was estimated using the formula: Volume=width^2 (mm)×length/2 (mm). As a positive control, cells treated with 15 μM DOX for 24 hours were used for vaccination. A group vaccinated with 5 μM CX4945-treated cells for 24 hours was also included. In total 4 groups were formed of 10 mice each group.

OCI-AML3 cells = experiment: Phagocytosis of treated tumor cells by M1 and M2 macrophages; type: cell-based; details: peptide 40 μM and 10 μM 5 hours, CX4945 5 μM 24 hours, Tat 40 μM 5 hours
Experimental: (§1) Treatment with the peptide identified as SEQ ID NO: 1, as described in examples 2 and 3, is capable of increasing “eat me” signals and decreasing “don't eat me” signals. Therefore, it fostered to evaluate whether the treatment with the peptide identified as SEQ ID NO: 1 facilitate phagocytosis of tumor cells by macrophages, and whether this is performed by M1 or M2 macrophages. For that purpose, HL-60 and OCI-AML3 leukemia tumor cell lines were previously stained with 0.5 μM CFSE and treated with 10 or 40 μM of the peptide identified as SEQ ID NO: 1, for five hours, 5 μM CX4945 for 24 hours or 40 μM Tat during 5 hours. Subsequently, cells were washed and co-cultured with each type of M1 and M2 macrophages, at a 1:1 ratio for three hours. Different types of macrophages were obtained from PBMC of healthy donors by Ficoll™ gradient. Monocytes were purified by positive selection, using CD14 beads with an MS column (Miltenyi Biotech, Germany), obtaining 96% purity. Monocytes were seeded at 0.25×10^6 cells/mL/well, in 12-wells plates and were induced with 100 ng/mL of GM-CSF, for seven days, and with 50 ng/mL of IFN-γ for last 24 hours, to obtain M1 macrophages. M2 macrophages were induced with 50 ng/mL of M-CSF for seven days and 100 ng/mL of IL-10 for last 24 hours. […]

HL-60 cells = experiment: as above; type: cell-based; details: peptide 40 μM and 10 μM 5 hours, CX4945 5 μM 24 hours, Tat 40 μM 5 hours
Experimental: as §1

PDL1 in A549 cells = experiment: PDL1 levels by flow cytometry; type: cell-based; details: 30 μM peptide, 5 μM CX4945 or 30 μM Tat peptide, 24 hours
Experimental: (§2) Immune checkpoints are currently an important target in cancer immunotherapy, due to their immunosuppressive role during the course of this disease. Taking this into account, effect of the peptide identified as SEQ ID NO: 1 on modulation of PDL1 levels in two non-small cell lung cancer cell lines: […], was evaluated. For that, 5×10^4 cells were seeded in 24-well plates. The day after, cells were treated with 30 μM peptide identified as SEQ ID NO: 1; 5 μM CX4945 or 30 μM Tat peptide, for 24 hours. After treatment, cells were collected, staining with an anti-PDL1 antibody and analyzed by flow cytometry.

PDL1 in H460 cells = experiment: PDL1 levels by flow cytometry; type: cell-based; details: 30 μM peptide, 5 μM CX4945 or 30 μM Tat peptide, 24 hours
Experimental: as §2

3LL-OVA cells = experiment: Cellular immune response, IFN-γ ELISPOT after inoculation of treated cells; type: in vivo, C57/BL6 mice; details: 3LL-OVA cells treated with 40 μM peptide 3 hours, 5 μM CX4945 or 40 μM Tat 3 hours; lymph node cells after 5 days
L1210 cells [2] = experiment: Tumor microenvironment in DBA/2 mice: serum cytokines and intratumoral cell populations; type: in vivo; details: for modulation in cytokine levels (IL12p70, TNF-α, IL-6, IL-10): Tat 20 mg/kg intratumoral, DOX 10 mM intratumoral, CX4945 75 mg/kg oral twice a day, five days; for intratumoral Foxp3+ T cell levels: peptide 20 mg/kg, DOX 10 mM, Tat 20 mg/kg, CX4945 75 mg/kg oral
Experimental: To study whether the peptide identified as SEQ ID NO: 1 was capable of modulating the tumor microenvironment, female DBA/2 mice, 6-8 weeks old, and between 17-19 grams were inoculated with 0.5×10^6 L1210 cells, subcutaneously, into right flank (inguinal inoculation). Seven days after tumor challenge, 42 mice with palpable and non-measurable tumor were selected, which were random assigned to six groups of seven animals each. […] DOX (10 mM) and Tat peptide (20 mg/kg), were administered intratumorally, in a final volume of 50 μL, a daily inoculation for five days. The compound CX4945 (75 mg/kg) was administered in 25 mM NaH2PO4 buffer, twice a day, orally, for five days. Seven days after the end of the treatment, the mice were euthanized to obtain the tumors (day 18 of the procedure). Before sacrificing the mice, blood samples were obtained for the cytokines (IL-6, IL-10, IL-12p70, TNF-α) detection by ELISA. Tumors were cut into small pieces and transferred to gentleMACS tubes with RPMI medium, supplemented with an enzyme cocktail from Tumor Dissociation kit (Miltenyi Biotech, Germany). Tumor dissociation was performed using the gentleMACS™ Dissociator kit and a tumor dissociation kit (Miltenyi Biotech, Germany). The digested suspension was filtered, centrifuged and labeled with specific antibodies against CD8, CD4, Foxp3, CD11c, CD86 and CD40.

[3] = system: Lewis Lung Carcinoma cells; experiment: Anti-PDL1 therapy in a murine model of lung cancer; type: in vivo, C57/BL6 mice
From the text: Taking into account the results obtained in the in vitro test, it was decided to evaluate whether the use of the peptide identified as SEQ ID NO: 1 improved the antitumor efficacy of anti-PDL1 therapy in a murine model of lung cancer. For that, 2×10^5 Lewis Lung Carcinoma cells were subcutaneously implanted (day 0) in 6-8 weeks old C57/BL6 female mice with 17-19 grams of body weight. Nine days after the tumor challenge, 42 animals with 40 mm^3 tumors were randomized into six groups with seven mice each. CX4945 (75 mg/kg) was orally administered in 25 mM NaH2PO4 buffer twice daily. 40 mg/kg of the peptide identified as SEQ ID NO: 1 and 100 μg anti-PDL1 antibody (clone 10F.9G2, isotype rat IgG2b kappa) were intraperitoneally applied. Tumor volume and body weight were determined 3 times a week for 40 days. Tumor volume was measured and calculated as described in Example 7.

[4] = system: RagOT-I cells / dendritic cells matured with treated 3LL cells; experiment: In vitro activation of OT-I CD8+ T cells by dendritic cells, IFN-γ ELISA; type: cell-based, mouse; details: versus negative control, CX4945 and Tat peptide
Experimental: Additionally, the ability of activating CD8+ T cells in vitro by these dendritic cells matured with peptide-treated 3LL cells was evaluated. For this purpose, dendritic cells previously co-incubated with tumor cells, under the conditions described above, were washed and loaded with the […] peptide from OVA, MHC class I restricted, at different concentrations (0, 10, 30 and 100 pg/mL) during three hours. After that time, they were washed again and co-incubated with RagOT-I cells in a 1:1 ratio for 48 hours. IFN-γ production was finally quantified by ELISA. RagOT-I cells co-incubated with dendritic cells previously incubated with untreated 3LL cells constituted the negative control of experiment.

K562 cells = experiment: NK cytotoxic activity, Cr51 release; type: cell-based; details: 50 μM
Experimental: The release of danger signals such as HSP70 and CRT has been reported to be involved in increasing the susceptibility of tumor cells toward cytotoxic activity of NK cells. Therefore, the effect of the peptide identified as SEQ ID NO: 1 on the susceptibility of tumor cells toward NK cytotoxic activity was evaluated. To do that, the classic target cells to NK activity, K562 cells, were employed. Target cells were labeled with Cr^51 (approximate specific activity: 100 μCi/μg) by incubation for 70 minutes at 37° C. Subsequently, target cells were washed three times with RPMI medium supplemented with 2% FBS and seeded in 96-well plates, at a target:effector ratio of 1:25. On the other hand, NK cells were isolated from peripheral blood mononuclear cells (PBMC) of healthy donors, by negative selection, using magnetic beads (Miltenyi Biotec). Thus, CD56+CD3− NK cells were obtained with more than 96% purity. The peptide identified as SEQ ID NO: 1 was added to the co-culture at 12.5; 25 and 50 μM. After 4 hours of incubation, supernatant was collected for the measurement of Cr^51 release using a scintillation counter. The percentage of specific lysis was calculated as follows: […]
Target cells without coincubation with effector cells were employed as spontaneous lysis control. Target cells with the peptide identified as SEQ ID NO: 1 constitute the toxicity control of the peptide.

[5] = system: OCI-AML3 and HL-60 tumor cells; details: read-out: IC50 dose

SMILES	vaccine effect of treated cells (L1210 cells [1])	susceptibility to be phagocytosed by M1 macrophages (OCI-AML3 cells)	susceptibility to be phagocytosed by M1 macrophages (HL-60 cells)	% PDL1+ cells (PDL1 in A549 cells)	IFM (PDL1 in A549 cells)	PDL1 expression (PDL1 in A549 cells; in words)	% PDL1+ cells (PDL1 in H460 cells)	IFM (PDL1 in H460 cells)	PDL1 expression (PDL1 in H460 cells; in words)	response of IFN-γ-secreting effector cells (ELISPOT) against OVA and OVA class I peptide (3LL-OVA cells)	modulation in cytokine levels (IL12p70, TNF-α, IL-6, IL-10) (L1210 cells [2])	intratumoral Foxp3+ T cell levels (L1210 cells [2])	tumor volume, combined with anti-PDL1 antibody ([3]; as alone, plus 100 μg anti-PDL1 antibody intraperitoneal, days 9, 12, 15, 18)	tumor progression (tumor volume), alone ([3]; peptide 40 mg/kg intraperitoneal or CX4945 75 mg/kg oral twice daily, days 9-13)	IFN-γ production by CD8+ OT-I cells [4]	toxicity to target cells (K562 cells)	IC50 [5]
O=C(O)c1ccc2c(c1)nc(Nc1cccc(Cl)c1)c1ccncc12 [CX4945]	did not induce any vaccine effect	not observed	not observed	29.6%	16.2	Differences were not observed	25.2%	15.23	Differences were not observed	not able to generate this type of response	not observed	not observed	not observed	not observed			
COc1cccc2c1C(=O)c1c(O)c3c(c(O)c1C2=O)C[C@@](O)(C(=O)CO)C[C@@H]3O[C@H]1C[C@H](N)[C@H](O)[C@H](C)O1 [DOX, doxorubicin]											not observed	significant decrease			significantly higher		
CSCC[C@@H]1NC(=O)[C@H](Cc2c[nH]c3ccccc23)NC(=O)[C@@H](NC(=O)[C@H](C)NC(=O)[C@H](CCC(N)=O)NC(=O)[C@@H]2CCCN2C(=O)[C@@H]2CCCN2C(=O)[C@H](CCCNC(=N)N)NC(=O)[C@H](CCCNC(=N)N)NC(=O)[C@H](CCCNC(=N)N)NC(=O)[C@H](CCC(N)=O)NC(=O)[C@H](CCCNC(=N)N)NC(=O)[C@H](CCCNC(=N)N)NC(=O)[C@H](CCCCN)NC(=O)[C@H](CCCCN)NC(=O)[C@H](CCCNC(=N)N)NC(=O)CN)CSSC[C@@H](C(=O)O)NC(=O)[C@H]([C@@H](C)O)NC(=O)CNC(=O)[C@H](CC(C)C)NC(=O)[C@H](Cc2c[nH]cn2)NC(=O)[C@H](CCCNC(=N)N)NC(=O)[C@@H]2CCCN2C(=O)[C@H](CO)NC1=O [peptide identified as SEQ ID NO: 1] (H-GRKKRRQRRRPPQACWMSPRHLGTC-OH; disulfide 15-25)																showed toxicity	40 µM
